Here are results for 21 molecules from patent publication US20260137703A1, “2-AMINO-PYRIDO[2,3-D]PYRIMIDIN-7(8H)-ONE AND 7-AMINO-1-PYRIMIDO[4,5-D]PYRIMIDIN-2(1 H)-ONE DERIVATIVES AS EGFR INHIBITORS FOR THE TREATMENT OF CANCER” (Cancer Research Technology Limited, priority 2022, published 2026).

Assay [1] addresses T1, Phospho-EGFR (Tyr1068) in H1975 cells (Homo sapiens, UniProt P00533, L858R/T790M).
T1 construct: host or cells: H1975
The assay is described as follows: HTRF pEGFR/total EGFR in H1975 cells. Format: cell-based. Particulars: ratio pEGFR/total EGFR, compound 3 hours. The procedure, abridged:
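Readout is the phospho-EGFR (Tyr1068) to total EGFR HTRF ratio, expressed relative to 0 μM control. Adhered H1975 cells were exposed to compound for 3 hours at 0.1% DMSO, duplicate wells, then lysed for 30 min at room temperature before two-wavelength fluorescence reading.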

In assay [2] the target is T2, Phospho-EGFR (Tyr1068) in A431 cells (Homo sapiens, UniProt P00533).
T2 construct: endogenous in cells; host or cells: A431
The assay is described as follows: HTRF pEGFR/total EGFR in A431 cells with EGF stimulation. Format: cell-based. Particulars: ratio pEGFR/total EGFR, compound 2.5 hours then 100 ng/ml EGF 30 mins. The method, boiled down: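 Values are pEGFR(Tyr1068)/total EGFR HTRF ratios (665/620 nm) given as percent of the 0 μM control. Adhered A431 cells (20,000 per well, 24 h) had 2.5 h compound pretreatment in 0.1% DMSO, then 30 min of 100 ng/ml EGF before lysis.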

For assay [3], the target named is T3, Phospho-EGFR (Tyr1068) in H1975 C797S cells (CRISPR-edited EGFR C797S) (Homo sapiens, UniProt P00533, C797S/L858R/T790M).
T3 construct: host or cells: H1975 C797S (CRISPR-edited)
The assay is described as follows: HTRF pEGFR/total EGFR in H1975 C797S cells. Format: cell-based. The note with it: ratio pEGFR/total EGFR, compound 3 hours. The method, boiled down: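 Readout is the HTRF-measured Tyr1068 phospho-EGFR to total EGFR ratio, normalised to the 0 μM control as percent. Preceding this, CRISPR-edited H1975 C797S cells, plated 24 h earlier, were exposed 3 h to duplicate compound doses in medium with 0.1% DMSO, then lysed on a shaker.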

Assay [4] addresses CtermHisTag-mEGFR Wild type (Homo sapiens, UniProt P00533). The assay is described as follows: biochemical.

T3 sequence (P00533 25-1210 T790M/C797S/L858R): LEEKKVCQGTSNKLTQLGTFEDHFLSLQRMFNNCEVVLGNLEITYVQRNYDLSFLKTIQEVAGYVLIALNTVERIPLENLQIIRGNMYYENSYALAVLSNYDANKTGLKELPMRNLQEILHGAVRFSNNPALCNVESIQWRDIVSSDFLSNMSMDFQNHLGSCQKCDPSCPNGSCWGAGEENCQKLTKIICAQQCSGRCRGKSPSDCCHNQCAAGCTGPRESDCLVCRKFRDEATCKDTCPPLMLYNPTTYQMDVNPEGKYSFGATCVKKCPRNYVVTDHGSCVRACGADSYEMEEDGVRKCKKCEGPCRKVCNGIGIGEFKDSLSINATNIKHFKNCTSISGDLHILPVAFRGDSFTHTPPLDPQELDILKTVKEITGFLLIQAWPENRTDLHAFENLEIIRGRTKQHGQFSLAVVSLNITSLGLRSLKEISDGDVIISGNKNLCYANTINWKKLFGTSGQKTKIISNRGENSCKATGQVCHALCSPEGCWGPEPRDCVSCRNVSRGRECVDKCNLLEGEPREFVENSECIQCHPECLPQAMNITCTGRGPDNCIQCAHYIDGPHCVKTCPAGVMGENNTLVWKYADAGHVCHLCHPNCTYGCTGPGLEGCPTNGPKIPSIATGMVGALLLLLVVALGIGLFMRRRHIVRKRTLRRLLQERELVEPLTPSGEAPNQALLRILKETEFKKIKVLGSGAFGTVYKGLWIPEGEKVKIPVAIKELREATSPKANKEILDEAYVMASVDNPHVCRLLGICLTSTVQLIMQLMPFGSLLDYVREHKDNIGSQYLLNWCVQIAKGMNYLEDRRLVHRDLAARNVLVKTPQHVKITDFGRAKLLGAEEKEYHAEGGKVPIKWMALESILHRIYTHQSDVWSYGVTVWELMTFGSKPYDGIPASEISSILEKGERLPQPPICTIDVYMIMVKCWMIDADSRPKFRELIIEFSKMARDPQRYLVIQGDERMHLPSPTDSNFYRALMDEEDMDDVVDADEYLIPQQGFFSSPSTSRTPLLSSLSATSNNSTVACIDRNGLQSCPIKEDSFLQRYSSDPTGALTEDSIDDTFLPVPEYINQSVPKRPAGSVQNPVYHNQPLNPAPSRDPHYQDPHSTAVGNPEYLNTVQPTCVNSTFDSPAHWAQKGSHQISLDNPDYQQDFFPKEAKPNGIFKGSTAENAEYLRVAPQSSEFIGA
T1 sequence (P00533 25-1210 T790M/L858R): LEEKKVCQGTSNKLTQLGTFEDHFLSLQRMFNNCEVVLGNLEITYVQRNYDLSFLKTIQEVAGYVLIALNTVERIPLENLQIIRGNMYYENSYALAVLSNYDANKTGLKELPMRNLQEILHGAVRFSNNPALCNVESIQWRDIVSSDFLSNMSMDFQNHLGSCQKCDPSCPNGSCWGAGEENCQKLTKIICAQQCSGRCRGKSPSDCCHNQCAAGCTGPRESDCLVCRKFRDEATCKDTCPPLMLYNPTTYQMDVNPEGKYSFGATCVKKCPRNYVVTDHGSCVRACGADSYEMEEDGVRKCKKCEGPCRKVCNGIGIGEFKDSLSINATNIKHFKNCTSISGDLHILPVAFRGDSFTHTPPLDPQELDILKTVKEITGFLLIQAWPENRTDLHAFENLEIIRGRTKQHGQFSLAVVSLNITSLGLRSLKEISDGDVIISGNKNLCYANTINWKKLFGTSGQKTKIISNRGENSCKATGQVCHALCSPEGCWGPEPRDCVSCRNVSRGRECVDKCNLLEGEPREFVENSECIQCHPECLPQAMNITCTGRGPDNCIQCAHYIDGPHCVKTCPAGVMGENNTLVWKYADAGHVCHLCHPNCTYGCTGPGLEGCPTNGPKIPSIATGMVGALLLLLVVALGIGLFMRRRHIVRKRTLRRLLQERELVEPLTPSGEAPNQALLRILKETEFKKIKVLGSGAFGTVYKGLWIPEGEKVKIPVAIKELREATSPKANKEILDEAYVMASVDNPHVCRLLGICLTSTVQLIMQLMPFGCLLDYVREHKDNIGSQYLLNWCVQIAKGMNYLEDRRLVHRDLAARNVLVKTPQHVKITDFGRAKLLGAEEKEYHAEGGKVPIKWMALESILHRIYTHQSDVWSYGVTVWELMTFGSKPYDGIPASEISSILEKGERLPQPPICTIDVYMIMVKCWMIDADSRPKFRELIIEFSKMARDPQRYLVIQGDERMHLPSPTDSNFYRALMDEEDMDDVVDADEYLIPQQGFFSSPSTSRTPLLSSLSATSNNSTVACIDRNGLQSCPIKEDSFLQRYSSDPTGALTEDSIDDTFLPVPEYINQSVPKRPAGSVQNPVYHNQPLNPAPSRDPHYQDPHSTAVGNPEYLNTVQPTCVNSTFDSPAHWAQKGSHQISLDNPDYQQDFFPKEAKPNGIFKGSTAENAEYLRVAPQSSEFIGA
T2 sequence (P00533 25-1210): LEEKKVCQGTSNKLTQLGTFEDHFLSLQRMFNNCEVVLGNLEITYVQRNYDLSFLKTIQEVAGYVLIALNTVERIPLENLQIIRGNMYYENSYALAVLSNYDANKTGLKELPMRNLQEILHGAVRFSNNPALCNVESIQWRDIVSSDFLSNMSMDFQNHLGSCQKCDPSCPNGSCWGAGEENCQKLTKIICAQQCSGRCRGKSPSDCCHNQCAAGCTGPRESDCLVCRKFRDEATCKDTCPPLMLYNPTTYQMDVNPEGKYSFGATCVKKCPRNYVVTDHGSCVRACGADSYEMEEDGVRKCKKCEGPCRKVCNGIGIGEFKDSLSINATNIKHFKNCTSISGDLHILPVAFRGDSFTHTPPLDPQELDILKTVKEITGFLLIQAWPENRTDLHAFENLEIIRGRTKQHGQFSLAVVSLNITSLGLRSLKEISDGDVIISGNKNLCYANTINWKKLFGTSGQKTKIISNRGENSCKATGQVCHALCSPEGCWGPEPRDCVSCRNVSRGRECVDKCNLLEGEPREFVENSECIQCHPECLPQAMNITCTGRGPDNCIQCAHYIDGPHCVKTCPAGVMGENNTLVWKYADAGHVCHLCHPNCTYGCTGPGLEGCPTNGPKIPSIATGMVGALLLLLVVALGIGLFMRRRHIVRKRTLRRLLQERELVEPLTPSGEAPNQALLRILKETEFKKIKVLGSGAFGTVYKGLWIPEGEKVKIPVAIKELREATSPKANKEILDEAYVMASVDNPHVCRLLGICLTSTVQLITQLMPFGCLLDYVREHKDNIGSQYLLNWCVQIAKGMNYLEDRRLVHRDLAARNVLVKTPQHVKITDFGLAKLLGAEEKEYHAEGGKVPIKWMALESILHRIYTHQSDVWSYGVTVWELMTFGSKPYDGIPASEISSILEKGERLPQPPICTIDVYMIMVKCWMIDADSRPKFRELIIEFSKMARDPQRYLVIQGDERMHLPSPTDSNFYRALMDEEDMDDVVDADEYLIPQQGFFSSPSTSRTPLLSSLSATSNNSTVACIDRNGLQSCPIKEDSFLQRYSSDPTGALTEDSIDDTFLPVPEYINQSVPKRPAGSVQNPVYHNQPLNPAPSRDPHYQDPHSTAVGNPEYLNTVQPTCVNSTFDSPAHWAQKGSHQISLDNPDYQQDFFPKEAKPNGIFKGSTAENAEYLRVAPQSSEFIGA
Chain of CtermHisTag-mEGFR Wild type (P00533 whole entry): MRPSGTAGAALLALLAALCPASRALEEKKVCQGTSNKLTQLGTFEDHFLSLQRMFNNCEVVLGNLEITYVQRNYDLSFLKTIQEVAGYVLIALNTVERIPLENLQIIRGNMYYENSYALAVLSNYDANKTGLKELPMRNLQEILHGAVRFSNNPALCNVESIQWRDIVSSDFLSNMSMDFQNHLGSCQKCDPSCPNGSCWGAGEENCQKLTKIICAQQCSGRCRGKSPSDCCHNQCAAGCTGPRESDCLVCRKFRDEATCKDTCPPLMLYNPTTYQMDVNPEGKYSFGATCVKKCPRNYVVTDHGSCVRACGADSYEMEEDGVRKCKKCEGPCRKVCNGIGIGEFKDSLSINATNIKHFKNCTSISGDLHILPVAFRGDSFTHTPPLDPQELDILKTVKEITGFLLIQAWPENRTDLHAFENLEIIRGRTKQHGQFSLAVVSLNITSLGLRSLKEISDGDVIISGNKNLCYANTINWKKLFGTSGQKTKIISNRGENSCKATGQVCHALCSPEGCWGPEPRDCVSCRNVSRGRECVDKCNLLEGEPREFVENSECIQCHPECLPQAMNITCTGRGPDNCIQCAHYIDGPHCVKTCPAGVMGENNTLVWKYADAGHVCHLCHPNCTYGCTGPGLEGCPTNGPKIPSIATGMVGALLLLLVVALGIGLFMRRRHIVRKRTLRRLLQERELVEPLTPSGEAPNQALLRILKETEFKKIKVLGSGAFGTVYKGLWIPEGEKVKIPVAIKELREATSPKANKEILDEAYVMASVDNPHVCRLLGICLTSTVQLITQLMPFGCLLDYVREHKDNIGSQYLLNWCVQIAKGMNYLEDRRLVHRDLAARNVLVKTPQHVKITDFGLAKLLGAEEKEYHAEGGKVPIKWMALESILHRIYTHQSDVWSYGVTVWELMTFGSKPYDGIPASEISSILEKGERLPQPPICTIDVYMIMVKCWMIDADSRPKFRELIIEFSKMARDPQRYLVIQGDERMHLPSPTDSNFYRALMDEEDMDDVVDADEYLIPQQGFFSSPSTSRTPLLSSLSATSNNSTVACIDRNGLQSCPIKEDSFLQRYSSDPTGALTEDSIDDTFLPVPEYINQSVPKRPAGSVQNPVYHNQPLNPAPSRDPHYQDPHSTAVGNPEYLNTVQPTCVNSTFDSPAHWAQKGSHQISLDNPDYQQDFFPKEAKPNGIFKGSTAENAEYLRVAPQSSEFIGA

With `C#Cc1c(C)c(=O)n(Cc2cnn(C)c2)c2nc(Nc3ccc(N4CCN(C)CC4)cc3)ncc12` [Example 180, 5-Ethynyl-6-methyl-2-{[4-(4-methylpiperazin-1-yl)phenyl]aminol}-8-[(1-methylpyrazol-4-yl)methyl]pyrido[2,3-d]pyrimidin-7-one], the IC50 is 1 to 3 µM in assay [1], greater than 3 µM in assay [2], 1 to 3 µM in assay [3] and 1 to 10 µM in assay [4].
With `C#Cc1cc(=O)n(C2CCCC2)c2nc(Nc3cccc(CN4CC(CS(C)(=O)=O)C4)c3)ncc12` [Example 181], the IC50 is greater than 3 µM in assay [1], greater than 3 µM in assay [2], greater than 3 µM in assay [3] and greater than 10 µM in assay [4].
On to `C#Cc1cc(=O)n(C2CCCC2)c2nc(Nc3cccc(CN4CCC(CS(C)(=O)=O)C4)c3)ncc12` (stereo not drawn) [Example 182], for which the IC50 was greater than 3 µM in assay [1], greater than 3 µM in assay [2], greater than 3 µM in assay [3] and greater than 10 µM in assay [4].
As to `C#Cc1cc(=O)n(C2CCCC2)c2nc(Nc3cccc(CN4CCC(CS(C)(=O)=O)CC4)c3)ncc12` [Example 183], the IC50 in assay [1] is greater than 3 µM; in assay [2] it was greater than 3 µM; in assay [3] it was greater than 3 µM; in assay [4], greater than 10 µM.
As for `C#Cc1cc(=O)n(C2CCCC2)c2nc(Nc3cccc4c3CN(C)C4)ncc12` [Example 184, 8-Cyclopentyl-5-ethynyl-2-[(2-methvl-1,3-dihydroisoindol-4-yl)amino]pyrido[2,3-d]pyrimidin-7-one], the half-maximal inhibitory concentration (IC50) in assay [1] was greater than 3 µM; in assay [2], greater than 3 µM; in assay [3], greater than 3 µM; in assay [4] it was 1 to 10 µM.
On to `C#Cc1cc(=O)n(C2CCCC2)c2nc(Nc3cccc4c3CCN(C)C4)ncc12` [Example 185, 8-Cyclopentyl-5-ethynyl-2-[(2-methyl-3,4-dihydro-1H-isoquinolin-5-yl)amino]pyrido[2,3-d]pyrimidin-7-one], for which the IC50 is greater than 3 µM in assay [1], greater than 3 µM in assay [2], greater than 3 µM in assay [3] and greater than 10 µM in assay [4].
`C#Cc1cc(=O)n2c3nc(ncc13)Nc1cccc(c1)OCCC2` [Example 186, 1^5-ethynyl-1^7,1^8-dihydro-4-oxa-2-aza-1(2,8)-pyrido[2,3-d]pyrimidina-3(1,3)-benzenacycloheptaphan-1^7-one]: the IC50 in assay [1] is greater than 3 µM; in assay [2] it was greater than 3 µM; in assay [3], greater than 3 µM; in assay [4] it was greater than 10 µM.
On to `C#Cc1cc(=O)n2c3nc(ncc13)Nc1cccc(c1)OC/C=C\C2` [Example 187, (Z)-1^5-ethynyl-1^7,1^8-dihydro-4-oxa-2-aza-1(2,8)-pyrido[2,3-d]pyrimidina-3(1,3)-benzenacyclooctaphan-6-en-1^7-one], for which the IC50 is less than 0.5 µM in assay [1], greater than 3 µM in assay [2], 0.5 to 1 µM in assay [3] and 1 to 10 µM in assay [4].
As for `C#Cc1cc(=O)n2c3nc(ncc13)Nc1ccc(N3CCN(C)CC3)c(c1)OC/C=C\C2` [Example 188, (Z)-1^5-ethynyl-3^4-(4-methylpiperazin-1-yl)-1^7,1^8-dihydro-4-oxa-2-aza-1(2,8)-pyrido[2,3-d]pyrimidina-3(1,3)-benzenacyclooctaphan-6-en-1^7-one], the IC50 in assay [1] is less than 0.5 µM; in assay [2], 0.5 to 1 µM; in assay [3], less than 0.5 µM; in assay [4] it was less than 1 µM.
Consider `C#Cc1cc(=O)n2c3nc(ncc13)Nc1ccc(N3CCN(C)CC3)c(c1)OCCCC2` [Example 189, 1^5-ethynyl-3^4-(4-methylpiperazin-1-yl)-1^7,1^8-dihydro-4-oxa-2-aza-1(2,8)-pyrido[2,3-d]pyrimidina-3(1,3)-benzenacyclooctaphan-1^7-one], for which the IC50 in assay [1] is less than 0.5 µM; in assay [2] it was 0.5 to 1 µM; in assay [3] it was less than 0.5 µM; in assay [4], less than 1 µM.
Turning to `C#Cc1c(C)c(=O)n2c3nc(ncc13)Nc1cccc(c1)OC/C=C\C2` [Example 190, (Z)-1^5-ethynyl-1^6-methyl-1^7,1^8-dihydro-4-oxa-2-aza-1(2,8)-pyrido[2,3-d]pyrimidina-3(1,3)-benzenacyclooctaphan-6-en-1^7-one], the IC50 is 1 to 3 µM in assay [1], greater than 3 µM in assay [2], 1 to 3 µM in assay [3] and greater than 10 µM in assay [4].
With `C#Cc1c(C)c(=O)n2c3nc(ncc13)Nc1cccc(c1)OCCCC2` [Example 191, 1^5-ethynyl-1^6-methyl-1^7,1^8-dihydro-4-oxa-2-aza-1(2,8)-pyrido[2,3-d]pyrimidina-3(1,3)-benzenacyclooctaphan-1^7-one], the IC50 is greater than 3 µM in assay [1], greater than 3 µM in assay [2], greater than 3 µM in assay [3] and 1 to 10 µM in assay [4].
Turning to `C#Cc1cc(=O)n2c3nc(ncc13)Nc1cccc(c1)OC[C@H]1CC[C@H](C1)C2` [Example 192, (5^1R,5^3S)-3^5-ethynyl-3^7,3^8-dihydro-7-oxa-2-aza-3(2,8)-pyrido[2,3-d]pyrimidina-1(1,3)-benzena-5(1,3)-cyclopentanacycloheptaphan-3^7-one], the half-inhibitory concentration (IC50) is 0.5 to 1 µM in assay [1], greater than 3 µM in assay [2], 0.5 to 1 µM in assay [3] and greater than 10 µM in assay [4].
In the case of `C#Cc1cc(=O)n2c3nc(ncc13)Nc1cccc(c1)OCCCC2` [Example 193, 1^5-Ethynyl-1^7,1^8-dihydro-4-oxa-2-aza-1(2,8)-pyrido[2,3-d]pyrimidina-3(1,3)-benzenacyclooctaphan-1^7-one], the IC50 is less than 0.5 µM in assay [1], greater than 3 µM in assay [2], 0.5 to 1 µM in assay [3] and greater than 10 µM in assay [4].
As to `C#Cc1c(C)c(=O)n2c3nc(ncc13)Nc1ccc(N3CCN(C)CC3)c(c1)OCCCC2` [Example 194, 1^5-Ethynyl-1^6-methyl-3^4-(4-methylpiperazin-1-yl)-1^7,1^8-dihydro-4-oxa-2-aza-1(2,8)-pyrido [2,3-d]pyrimidina-3(1,3)-benzenacyclooctaphan-1^7-one], the IC50 was less than 0.5 µM in assay [1], less than 0.5 µM in assay [2], less than 0.5 µM in assay [3] and less than 1 µM in assay [4].
Take `C#Cc1cc(=O)n2c3nc(ncc13)Nc1cccc(c1)COC/C=C\C2` [Example 195, (Z)-1^5-ethynyl-1^7,1^8-dihydro-5-oxa-2-aza-1(2,8)-pyrido[2,3-d]pyrimidina-3(1,3)-benzenacyclononaphan-7-en-1^7-one]: the IC50 is 0.5 to 1 µM in assay [1], greater than 3 µM in assay [2], greater than 3 µM in assay [3] and less than 1 µM in assay [4].
On to `C#Cc1cc(=O)n2c3nc(ncc13)Nc1ccc(N3CCN(C)CC3)c(c1)COCCC2` [Example 196, 1^5-Ethynyl-34-(4-methylpiperazin-1-yl)-1^7, 1^8-dihydro-5-oxa-2-aza-1(2,8)-pyrido[2,3-d]pyrimidina-3(1,3)-benzenacyclooctaphan-1^7-one], for which the IC50 in assay [1] is greater than 3 µM; in assay [2] it was greater than 3 µM; in assay [3], greater than 3 µM; in assay [4], greater than 10 µM.
For `C#Cc1cc(=O)n2c3nc(ncc13)Nc1ccc(N3CCN(C)CC3)c(c1)CC(=O)NCC2` [Example 197, 1^5-Ethynyl-3^4-(4-methylpiperazin-1-yl)-1^7,1^8-dihydro-2,6-diaza-1(2,8)-pyrido[2,3-d]pyrimidina-3(1,3)-benzenacyclooctaphane-1^7,5-dione], the IC50 was 1 to 3 µM in assay [1], greater than 3 µM in assay [2], 1 to 3 µM in assay [3] and greater than 10 µM in assay [4].
For `C#Cc1cc(=O)n2c3nc(ncc13)Nc1ccc(N3CCN(C)CC3)c(c1)NCCCC2` [Example 198, 1^5-Ethynyl-3^4-(4-methylpiperazin-1-yl)-1^7, 1^8-dihydro-2,4-diaza-1(2,8)-pyrido[2,3-d]pyrimidina-3(1,3)-benzenacyclooctaphan-1^7-one], the IC50 is 0.5 to 1 µM in assay [1], greater than 3 µM in assay [2], less than 0.5 µM in assay [3] and greater than 10 µM in assay [4].
On to `C#Cc1cc(=O)n2c3nc(ncc13)Nc1ccc(N3CCN(C)CC3)c(c1)CNCCC2` [Example 199, 1^5-Ethynyl-3^4-(4-methylpiperazin-1-yl)-1^7,1^8-dihydro-2,5-diaza-1(2,8)-pyrido[2,3-d]pyrimidina-3(1,3)-benzenacyclooctaphan-1^7-one], for which the IC50 in assay [1] is greater than 3 µM; in assay [2], greater than 3 µM; in assay [3], greater than 3 µM; in assay [4] it was greater than 10 µM.
Take `C#Cc1cc(=O)n2c3nc(ncc13)Nc1ccc(N3CCN(C)CC3)c(c1)OCCCCC2` [Example 200, 1^5-Ethynyl-34-(4-methylpiperazin-1-yl)-1^7,1^8-dihydro-4-oxa-2-aza-1(2,8)-pyrido[2,3-d]pyrimidina-3(1,3)-benzenacyclononaphan-17-one]: the IC50 in assay [1] is less than 0.5 µM; in assay [2], less than 0.5 µM; in assay [3] it was less than 0.5 µM; in assay [4] it was less than 1 µM.
